Measurements: patent US11505532B2, “SSAO inhibitor” (SHANDONG DANHONG PHARMACEUTICAL CO., LTD., priority 2017, dated 2022)

What was measured:
[1] = Distribution of compounds in liver and blood of CD-1 mice; format: in vivo; conditions: single oral dose; for Liver Concentration (@1.0 hour) / Plasma Concentration (@1.0 hour): 1 hour after administration; for Liver Concentration/Plasma Concentration (@1.0 hour) / Liver Concentration/Plasma Concentration (@4.0 hour): ratio; for Liver Concentration (@4.0 hour) / Plasma Concentration (@4.0 hour): 4 hours after administration
Protocol: Experimental purpose: distribution of compounds in liver and blood of CD-1 mice was tested;
CD-1 Mice (male, 25-35 g, 6-9 weeks old, Shanghai Slack);
Experimental procedure: after oral administration, the drug was distributed in the liver and blood of rodents, candidate compounds in the experiment were formulated into a clear solution to be administered to mice in a single oral dose. The oral solvent was a certain proportion of an aqueous solution of hydroxypropyl β-cyclodextrin or a physiological saline solution. The concentration of the drug in the liver and blood was measured at 1 hour and 4 hours after administration.

[2] = biological target: hERG potassium ion channel (Homo sapiens (Human), UniProt Q12809); test: Inhibition test of hERG potassium ion channel (automatic patch clamp, CHO-hERG cells); format: cell-based; conditions: conclusion in words
Protocol: The effect of the to-be-tested compound on the potassium ion channel of hERG was detected by a fully automatic patch clamp method.
The cells stably expressing hERG potassium channel used in the experiment were obtained from CHO-hERE of Aviva Biosciences, and CHO-hERG was cultured in 5% CO2 at 37° C.
CHO-hERG cells prepared for the experiment were cultured for at least two days, and the cell density reached 75% or more. Prior to the start of the experiment, cells were digested with TrypLE and then resuspended in extracellular fluid to collect the cells.
Extracellular fluids need to be prepared once a month. The intracellular fluid need to be subpackaged and frozen at −20° C.
The to-be-tested compound and the positive control Amitriptyline were dissolved in DMSO to a certain concentration of the stock solution, and then diluted according to different gradients, and finally added to the extracellular fluid in a certain ratio, and diluted to a concentration to be measured. Visual inspection was performed to see if there was any precipitation before the start of the experiment. Finally, the concentration of DMSO in the to-be-tested solution and the positive control Amitriptyline should not exceed 0.3%. […]
In each complete current record, based on the percentage of peak current in the negative control, the percent inhibition of the concentration of each compound can be calculated. […]

VAP-1/SSAO [3] = biological target: T1, VAP-1/SSAO (Homo sapiens (Human), UniProt Q16853); test: Human VAP-1 enzyme activity assay (Amplex Red Monoamine Oxidase kit); format: biochemical; conditions: 10 nM VAP-1 enzyme, 30 min preincubation, benzylamine substrate; read-out: Human Recombinant VAP-1/SSAO Enzyme Inhibitory Activity IC50
Protocol: Human VAP-1 Enzyme Activity Assay:
The inhibition of the sample on VAP-1 enzyme activity was measured by using an Amplex® Red Monoamine Oxidase kit (Invitrogen #A12214). 100 nL of the gradiently-diluted to-be-tested compound (solvent DMSO) was added to a 384-well plate. 25 μL of 10 nM VAP-1 enzyme solution was added and incubated for 30 minutes at room temperature. A substrate mixture of VAP-1 enzyme (200 μM Amplex Red, 1 U/mL HRP, 1 mM Benzylamine) was added and incubated for 60 minutes at room temperature. After the incubation, the fluorescent signal was read with a microplate reader Envision (excitation light wavelength 530-560 nm, emission light wavelength 590 nm). The fluorescence signal value after the background signal was removed was analyzed by Prism software, and the IC50 of the sample against the VAP-1 enzyme was calculated.

VAP-1/SSAO [4] = biological target: T1, VAP-1/SSAO; test: VAP-1 cell activity assay (HUVEC or CHO cells transfected with VAP-1/pCDNA(3.1) plasmid, Amplex Red); format: cell-based; conditions: HUVEC or CHO cells transfected with VAP-1 plasmid; read-out: VAP-1/SSAO Cellular Inhibitory Activity IC50
Protocol: The inhibition of the sample on VAP-1 cell activity was measured by using an Amplex® Red Monoamine Oxidase kit (Invitrogen #A12214).
The cultured HUVEC or CHO cells were plated into a 6-well plate at a density of 0.8 M/well, placed in a 37° C., 5% CO2 incubator for incubation for 24 hours, and then the cells was transferred with a Lipo2000 reagent and a VAP-1/pCDNA (3.1) plasmid, and liquid was changed for the cells after 5 hours (Lipo2000 was toxic to the cells); after 24 hours, the cells were digested and plated into 384-well plates with a density of 25 μl, 10000 cells/well, and liquid was replaced with medium without FBS for the cells after 6-7 hours, and the cell plates were incubated overnight at 37° C. in a 5% CO2 incubator.
1) Dilution of the compound: serial dilution in 4× gradient was carried out with 100% DMSO, 10 points were diluted, the starting concentration of the to-be-tested compound was 0.5 mM (final concentration was 1) μM); 100 nl of compound solution was transferred to a 384-well cell assay plate with ECHO. […]
5) The reaction was carried out in the dark at room temperature for 60 minutes, and the fluorescence value was measured by Envision: the excitation wave was 535 nm, and the emission wave was 590 nm. […]
7) The data were analyzed with Prism. The IC50 of the sample against VAP-1 cells was calculated.

[5] = system: CCl4-induced chronic liver fibrosis male C57BL/6 model; test: Oral CCl4-induced chronic liver fibrosis model; format: in vivo, C57BL/6 mice; conditions: oral daily for 28 days, superior to PXS-4728A in the same dosage
Protocol: The therapeutic effect of compounds on an oral CCl4-induced chronic liver fibrosis male C57BL/6 model was tested.
Male C57BL/6 mice, 7-8 weeks old;
Experimental method: Male C57BL/6 mice were orally administered from the day CCl4 was put for modeling, and administered daily. Continuous administration was conducted for 28 days. The animals were fasted for at least 6 hours on the next day after the last administration Animal weight was measured during euthanasia and all animals were euthanized under the guidance of the KCl Animal Euthanasia SOP. Non-anticoagulant venous blood of mice was collected from the ocular venous plexus. The whole blood was allowed to stand at room temperature for 30 minutes, and centrifuged at 5000 rpm for 5 minutes, and the serum was separated and placed in a 1.5 ml EP tube and stored at −80° C. After the whole body of the animal was perfused with hypothermic saline, the liver was taken and subjected to tissue gross image acquisition. The left lobe of the liver was divided into 4 equal parts and put into 4 tissue cryotubes for liquid nitrogen freezing, and then transferred to −80° C. for storage. The rest of the liver tissue was fixed in 10% neutral formalin fixative. […] HE staining was subjected to double-blind score by two pathological readers, and the area of hepatic fibrosis was analyzed for sirius-red stained sections by digital pathology.

hERG potassium ion channel, sequence (Q12809 whole entry): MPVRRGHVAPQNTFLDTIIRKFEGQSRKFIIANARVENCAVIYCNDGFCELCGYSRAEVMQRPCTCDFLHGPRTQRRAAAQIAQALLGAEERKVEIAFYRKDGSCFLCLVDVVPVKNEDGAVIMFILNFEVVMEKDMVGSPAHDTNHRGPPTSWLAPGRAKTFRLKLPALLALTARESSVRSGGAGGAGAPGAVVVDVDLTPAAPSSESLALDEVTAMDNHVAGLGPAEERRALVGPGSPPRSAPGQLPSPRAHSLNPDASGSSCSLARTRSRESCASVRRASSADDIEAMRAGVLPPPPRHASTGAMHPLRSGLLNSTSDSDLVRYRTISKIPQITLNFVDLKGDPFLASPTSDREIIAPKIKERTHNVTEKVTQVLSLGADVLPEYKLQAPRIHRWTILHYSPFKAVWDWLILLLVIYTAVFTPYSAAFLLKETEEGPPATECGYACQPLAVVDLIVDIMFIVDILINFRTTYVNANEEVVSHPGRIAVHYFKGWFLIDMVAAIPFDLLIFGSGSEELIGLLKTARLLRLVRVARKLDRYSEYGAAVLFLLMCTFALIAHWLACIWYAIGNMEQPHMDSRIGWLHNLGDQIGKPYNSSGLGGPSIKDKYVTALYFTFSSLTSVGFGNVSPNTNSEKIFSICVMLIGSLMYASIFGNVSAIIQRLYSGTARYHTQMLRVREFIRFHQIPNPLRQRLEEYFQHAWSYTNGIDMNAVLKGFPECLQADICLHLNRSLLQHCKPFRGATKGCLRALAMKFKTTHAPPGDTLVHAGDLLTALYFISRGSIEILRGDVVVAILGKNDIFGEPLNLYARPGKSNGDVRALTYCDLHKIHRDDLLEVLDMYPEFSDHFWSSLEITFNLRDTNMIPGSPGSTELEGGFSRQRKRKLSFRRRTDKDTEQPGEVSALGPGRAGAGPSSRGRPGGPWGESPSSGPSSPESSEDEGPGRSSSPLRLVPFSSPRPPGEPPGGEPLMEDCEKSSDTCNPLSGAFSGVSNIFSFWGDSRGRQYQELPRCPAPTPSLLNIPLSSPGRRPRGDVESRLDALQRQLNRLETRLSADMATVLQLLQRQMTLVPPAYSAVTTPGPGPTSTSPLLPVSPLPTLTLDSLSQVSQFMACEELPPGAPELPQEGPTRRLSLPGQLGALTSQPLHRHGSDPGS
T1 sequence (Q16853 whole entry): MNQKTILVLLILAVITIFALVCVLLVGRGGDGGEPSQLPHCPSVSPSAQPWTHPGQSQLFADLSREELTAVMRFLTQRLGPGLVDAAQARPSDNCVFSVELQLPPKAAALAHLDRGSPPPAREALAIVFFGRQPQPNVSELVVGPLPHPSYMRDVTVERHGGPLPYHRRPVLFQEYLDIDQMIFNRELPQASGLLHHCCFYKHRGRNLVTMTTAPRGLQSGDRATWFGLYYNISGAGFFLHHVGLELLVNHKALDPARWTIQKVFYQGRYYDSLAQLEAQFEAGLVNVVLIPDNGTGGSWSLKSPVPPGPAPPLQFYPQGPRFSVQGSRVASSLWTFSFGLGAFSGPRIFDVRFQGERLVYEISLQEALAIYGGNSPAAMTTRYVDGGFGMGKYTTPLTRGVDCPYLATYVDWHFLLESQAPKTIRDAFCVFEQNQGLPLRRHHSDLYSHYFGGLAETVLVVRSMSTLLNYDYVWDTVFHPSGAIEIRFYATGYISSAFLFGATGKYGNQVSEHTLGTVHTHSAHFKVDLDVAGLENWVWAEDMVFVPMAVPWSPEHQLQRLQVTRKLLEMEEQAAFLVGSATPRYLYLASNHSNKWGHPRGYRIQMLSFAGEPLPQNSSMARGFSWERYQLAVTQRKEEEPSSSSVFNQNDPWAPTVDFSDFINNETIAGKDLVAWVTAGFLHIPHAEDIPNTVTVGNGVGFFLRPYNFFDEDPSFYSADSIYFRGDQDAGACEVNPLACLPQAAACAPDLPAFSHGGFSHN

With `CC(C)(C)NC(=O)c1ccc(OC/C(=C/F)CN)cc1.Cl` [PXS-4728A, reference compound] the “Liver Concentration (@1.0 hour)” value [1] was 13140, the “Plasma Concentration (@1.0 hour)” value [1] was 1470 and the “Liver Concentration/Plasma Concentration (@1.0 hour)” value [1] was 10. The “Liver Concentration (@4.0 hour)” value [1] was 2120, the “Plasma Concentration (@4.0 hour)” value [1] was 154 and the “Liver Concentration/Plasma Concentration (@4.0 hour)” value [1] was 14.

With `Cc1noc(-c2ccc(OC/C(=C/F)CN)cc2)n1.Cl` [WX008] the “inhibition of hERG potassium current” value [2] was “weak inhibition”.

`Cn1nc(-c2ccc(OC/C(=C/F)CN)cc2F)nc1C1CC1` [WX098] showed an IC50 (VAP-1/SSAO [3]) of 1.8 nM and an IC50 (VAP-1/SSAO [4]) of 0.2 nM.

For `Cl.Cn1nc(-c2ccc(OC/C(=C/F)CN)cc2)nc1C(F)F` [WX126], the “Liver Concentration (@1.0 hour)” value [1] was 13520, the “Plasma Concentration (@1.0 hour)” value [1] was 934 and the “Liver Concentration/Plasma Concentration (@1.0 hour)” value [1] was 15. The “Liver Concentration (@4.0 hour)” value [1] was 3364, the “Plasma Concentration (@4.0 hour)” value [1] was 190 and the “Liver Concentration/Plasma Concentration (@4.0 hour)” value [1] was 17. The “inhibition of hERG potassium current” value [2] was “weak inhibition”, the “effect on liver fibrosis (Sirius-Red staining)” value [5] was “obvious improvement effect” and the “effect on liver injury (liver injury score, HE staining)” value [5] was “obvious improvement effect”.
